Source: ChEMBL document CHEMBL1147585, “Potent imidazole and triazole CB1 receptor antagonists related to SR141716” (Bioorg Med Chem Lett, 2004)

Target: T1, Cannabinoid receptor 1 (Homo sapiens, UniProt P21554)
Experiment: Evaluated for binding affinity towards human Cannabinoid receptor 1 at a concentration of 20 uM

T1 sequence (P21554 whole entry): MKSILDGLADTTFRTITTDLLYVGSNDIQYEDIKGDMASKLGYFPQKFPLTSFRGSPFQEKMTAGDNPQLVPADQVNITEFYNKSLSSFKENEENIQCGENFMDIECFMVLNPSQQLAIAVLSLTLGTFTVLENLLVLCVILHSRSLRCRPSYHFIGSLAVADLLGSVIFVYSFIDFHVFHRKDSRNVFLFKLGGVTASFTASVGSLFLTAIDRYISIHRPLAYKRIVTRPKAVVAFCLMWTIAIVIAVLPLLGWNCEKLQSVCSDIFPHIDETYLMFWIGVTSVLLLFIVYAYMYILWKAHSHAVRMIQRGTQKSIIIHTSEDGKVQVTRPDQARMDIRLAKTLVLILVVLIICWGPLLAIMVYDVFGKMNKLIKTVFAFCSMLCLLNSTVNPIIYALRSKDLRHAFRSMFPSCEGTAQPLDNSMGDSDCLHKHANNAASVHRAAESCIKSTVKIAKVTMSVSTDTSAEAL

In order of falling inhibition:
1. Cc1c(C(=O)NCCN(C)C)nn(-c2ccc(Cl)cc2Cl)c1-c1ccc(Cl)cc1  70%
2. Cc1c(C(=O)NCCO)nn(-c2ccc(Cl)cc2Cl)c1-c1ccc(Cl)cc1  69%
3. CN(C)CCNC(=O)c1nc(-c2ccc(Cl)cc2Cl)n(-c2ccc(Cl)cc2)n1  49%
4. CN(C)CCNC(=O)c1cn(-c2ccc(Cl)cc2)c(-c2ccc(Cl)cc2Cl)n1  48%
5. O=C(NN1CCCCCC1)c1nc(-c2ccc(Cl)cc2)n(-c2ccc(Cl)cc2Cl)n1  43%

Target: T1, Cannabinoid receptor 1
Experiment: Evaluated for binding affinity towards human Cannabinoid receptor 1

In order of falling Ki:
1. C#Cc1c(C(=O)NN2CC3CCCC3C2)nc(-c2ccc(Cl)cc2Cl)n1-c1ccc(Cl)cc1 (configuration not stated)  770 nM
2. COc1cc(Cl)ccc1-c1nc(C(=O)NN2CC3CCCC3C2)nn1-c1ccc(Cl)cc1Cl (configuration not stated)  270 nM
3. O=C(NN1CC2CCCC2C1)c1nc(-c2ccc(Cl)cc2Cl)n(-c2ccc(Cl)cc2)n1 (configuration not stated)  137 nM
4. O=C(NC1CCc2ccccc21)c1nc(-c2ccc(Cl)cc2Cl)n(-c2ccc(Cl)cc2)n1 (configuration not stated)  101 nM
5. Cc1c(C(=O)N(C)C2CCCCC2)nn(-c2ccc(Cl)cc2Cl)c1-c1ccc(Cl)cc1  100 nM
6. CC1CCC(NC(=O)c2nc(-c3ccc(Cl)cc3Cl)n(-c3ccc(Cl)cc3)n2)CC1 (configuration not stated)  94 nM
7. Cc1c(C(=O)NCCc2ccc(F)cc2)nn(-c2ccc(Cl)cc2Cl)c1-c1ccc(Cl)cc1  91 nM
8. Cc1c(C(=O)Nc2ccncc2)nn(-c2ccc(Cl)cc2Cl)c1-c1ccc(Cl)cc1  85 nM
9. O=C(NN1CCCCC1)c1cn(-c2ccc(Cl)cc2)c(-c2ccc(Cl)cc2Cl)n1  85 nM
10. O=C(NN1CCCCCC1)c1cn(-c2ccc(Cl)cc2)c(-c2ccc(Cl)cc2Cl)n1  78 nM
11. CC(NC(=O)c1nc(-c2ccc(Cl)cc2Cl)n(-c2ccc(Cl)cc2)n1)c1ccc(Cl)cc1 (configuration not stated)  66 nM
12. O=C(NN1CC2CCCC2C1)c1cn(-c2ccc(Cl)cc2)c(-c2ccc(Cl)cc2Cl)n1 (configuration not stated)  66 nM
13. O=C(NC1CCCCC1)c1cn(-c2ccc(Cl)cc2)c(-c2ccc(Cl)cc2Cl)n1  48 nM
14. Cc1c(C(=O)NC2CCCCC2)nn(-c2ccc(Cl)cc2Cl)c1-c1ccc(Cl)cc1  42 nM
15. Cc1c(C(=O)NC(C)C(C)C)nn(-c2ccc(Cl)cc2Cl)c1-c1ccc(Cl)cc1 (configuration not stated)  41 nM
16. Cc1c(C(=O)NC(C)c2ccc(Cl)cc2)nc(-c2ccc(Cl)cc2Cl)n1-c1ccc(Cl)cc1 (configuration not stated)  33 nM
17. O=C(c1nc(-c2ccc(Cl)cc2)n(-c2ccc(Cl)cc2Cl)n1)N1CCN(c2cccc(C(F)(F)F)c2)CC1  32 nM
18. O=C(NC1CCN(Cc2ccccc2)C1)c1nc(-c2ccc(Cl)cc2Cl)n(-c2ccc(Cl)cc2)n1 (configuration not stated)  29 nM
19. Cc1c(C(=O)NN2CCCCCC2)nn(-c2ccc(Cl)cc2Cl)c1-c1ccc(Cl)cc1  14 nM
20. O=C(NN1CC2CCCC2C1)c1nc(-c2ccc(Cl)cc2Cl)n(-c2ccc(Cl)cc2)c1Br (configuration not stated)  11 nM
21. N#Cc1c(C(=O)NN2CC3CCCC3C2)nc(-c2ccc(Cl)cc2Cl)n1-c1ccc(Cl)cc1 (configuration not stated)  9 nM
22. Cc1c(C(=O)NN2CC3CCCC3C2)nn(-c2ccc(Cl)cc2Cl)c1-c1ccc(Cl)cc1 (configuration not stated)  5 nM
